Results reported in PubChem BioAssay (NCI).
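Results reflect a 48-hour exposure of cells in 96-well plates to compound at five concentrations. TGI is the concentration that stops growth completely.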

Assays:
Experiment in all cases: inhibition of tumour cell growth, NCI panel, 48 h
SK-MEL-5 melanoma = system: SK-MEL-5 melanoma
HOP-92 NSCLC = system: HOP-92 NSCLC
MDA-N = system: MDA-N
SNB-19 CNS = system: SNB-19 CNS
OVCAR-4 ovarian = system: OVCAR-4 ovarian
CCRF-CEM leukemia = system: CCRF-CEM leukemia
IGROV1 ovarian = system: IGROV1 ovarian
SR leukemia = system: SR leukemia
DU-145 prostate = system: DU-145 prostate
M14 melanoma = system: M14 melanoma
UO-31 renal = system: UO-31 renal
HCC-2998 colon = system: HCC-2998 colon
SK-MEL-28 melanoma = system: SK-MEL-28 melanoma
NCI-H23 lung = system: NCI-H23 lung
HCT-116 colon = system: HCT-116 colon
UACC-257 melanoma = system: UACC-257 melanoma
BT-549 breast = system: BT-549 breast
MOLT-4 leukemia = system: MOLT-4 leukemia
HS 578T breast = system: HS 578T breast
OVCAR-5 ovarian = system: OVCAR-5 ovarian

COc1ccc(/C(C)=N/NC(=S)N(C)C)c(O)c1
TGI (SK-MEL-5 melanoma): > 100 µM
TGI (HOP-92 NSCLC): 98.8 µM
TGI (MDA-N): > 100 µM
TGI (SNB-19 CNS): > 100 µM
TGI (OVCAR-4 ovarian): 9.48 µM
TGI (CCRF-CEM leukemia): 87.9 µM
TGI (IGROV1 ovarian): 23.2 µM
TGI (SR leukemia): > 100 µM
TGI (DU-145 prostate): > 100 µM
TGI (M14 melanoma): > 100 µM
TGI (UO-31 renal): 36 µM
TGI (HCC-2998 colon): > 100 µM
TGI (SK-MEL-28 melanoma): > 100 µM
TGI (NCI-H23 lung): 72.9 µM
TGI (HCT-116 colon): > 100 µM
TGI (UACC-257 melanoma): 77.7 µM
TGI (BT-549 breast): 66.6 µM
TGI (MOLT-4 leukemia): > 100 µM
TGI (HS 578T breast): > 100 µM
TGI (OVCAR-5 ovarian): > 100 µM
